{"source": "patent US20170216360A1", "about": "“METHODS AND COMPOSITIONS FOR IMPROVING HOMING OF CELLS INCLUDING MESENCHYMAL STEM CELLS” (SANOFI, priority 2014, published 2017)", "key": {"[1]": {"system": "CD11a surface expression on MSCs", "assay": "CyTOF analysis of CD11a expression levels on MSCs", "format": "cell-based, human", "protocol": "To further confirm the screening results, the surface expression of CD11a was also examined by Time of Flight Mass Cytometry (CyTOF2, DVS Sciences) (Newell et al., 2013, Nat Biotechnol. 31(7):623-9). MSCs were treated with Ro-31-8425 as indicated and sample preparation was performed per manufacturer's instructions with slight modifications. Briefly, the harvested MSC pellet was first resuspended with Intercalator-103Rh solution (1 μM) in PBS to identify viable cells, then washed twice with MaxPar cell staining buffer and stained with 100 μL antibody cocktail (human Nd142-CD11a and Tb159-CD90, 1:200 dilution in staining buffer) for 30 min at room temperature. After two washes, the cells were further stained with 125 nM MaxPar Intercalator-Ir in MaxPar Fix and Perm buffer for 1-2 h with gentle shaking. Finally the fixed cells were thoroughly washed with ultrapure H2O 2O for three times (1000 g, 5 min each), resuspended in 300 μL H2O and filtered through a 40 μm Falcon cell strainer (Corning) prior to CyTOF data acquisition. The CyTOF data was analyzed with Cytobank on-line data analysis platform (website www cytobank.org)."}, "[2]": {"system": "CD11a surface expression on huMSCs", "assay": "Medium throughput screen: CD11a surface expression on MSCs, PE-CY5 anti-CD11a antibody, laser-scanning fluorescence microplate cytometer", "format": "cell-based, human"}, "TNF-α": {"system": "TNF-α", "assay": "TNF-α ELISA of ear homogenates after infusion of pretreated MSCs", "format": "in vivo, mouse", "protocol": "To determine the impact of small molecule pretreatment on MSC therapeutic potential, ear swelling was measured. As a baseline, we measured ear thickness of all mice to be used using a caliper (Mitutoyo Inc.) and found no difference. Each measurement was taken 3 times with the average value recorded, and care taken to ensure minimal compression. Inflammation was then induced by injection of 30 μg LPS in 30 μL 0.9% saline solution into the pinna of the left ear. 24 hours later, n=3 mice of each condition were infused with no MSCs, 10e6/20 g body weight MSCs pretreated for 24 hours with 0.1% DMSO, or 10e6/20 g body weight MSCs pretreated for 24 hours with 3.0 μM small molecule compound 1929. Upon 24 hours after cell infusion, ear thickness was measured using a caliper as before. To evaluate TNF-α secretion, inflammation and MSC treatment was performed as above with n=4-6 mice for each condition. Mice were sacrificed 24 hours after cell administration and both ears were harvested. Ears were then ground in ice-cold extraction buffer (RIPA with 0.5% Tween-20) using a homogenizer. Homogenates were transferred to 1.5 mL tubes, centrifuged at 13,000×g for 10 minutes at 4° C., and the supernatant was stored at −80° C. until analysis. The level of mouse TNF-α level in the samples was quantified using an anti-mouse TNF-α ELISA kit (Biolegend, San Diego, Calif.)."}, "CD18 mRNA": {"system": "CD18 mRNA", "assay": "CD18 mRNA analysis by qPCR in MSCs", "format": "cell-based, human", "conditions": "3 μM", "protocol": "The mRNA levels of CD11a and CD18 in response to Ro-31-8425 pretreatment of MSCs were analyzed by qPCR. Specifically, MSCs were treated with Ro-31-8425 (3 μM) or vehicle control (0.1% DMSO) for 2 h, 4 h, 8 h, 14 h or 24 h. Cells were then trypsinized, washed with ice-cold PBS and pelleted (500 g for 5 min at 4° C.) at during the treatment and immediately stored at −80° C. RNA extraction was then performed. Briefly, the frozen cell pellet was crushed with a tissue pestle (Fisher Scientific) in the presence of 1 mL TRI RNA isolation reagent (Sigma Aldrich). Upon complete pellet dissociation, 0.2 mL chloroform was added and suspension was vortexed for 15 s, followed by incubation at ambient temperature for 10 min. The mixture was centrifuged at 15,000 g for 15 min at […], the resulting supernatant aqueous phase was removed, thoroughly mixed with 0.5 mL isopropanol (Sigma Aldrich) and further centrifuged (at 15,000 g for 10 min) to obtain the total RNA precipitates. The RNA pellets were washed twice in 75% ethanol, and air dried for 10 min at room temperature before being reconstituted with 20 uL ultrapure H2O. The quality and quantity of the total RNAs were measured and verified using Nanodrop ND-2000 Spectrophotometer (NanoDrop Products). Subsequently, equal amount of total RNA (2 μg) was reverse transcribed into cDNA using a QuantiTect reverse transcription kit (Qiagen). […]"}, "MSCs": {"system": "MSCs", "assay": "Cell viability assay, XTT", "format": "cell-based, human", "protocol": "Pre-confluent MSCs were incubated with Ro-31-8425 at the indicated concentrations for 24 h or 72 h and cell viability was assessed via an XTT assay according to manufacturer's instructions (ATCC).\nMSCs were pretreated with Ro-31-8425 for 24 h or 72 h, followed by quantification of MSC viability via XTT. (Y axis presents the percentage of viable cells compared to untreated control (cells incubated with 10% FBS-supplemented MEMa media), error bars represent standard deviation, n=3)."}}, "note": "Counter-ions that a name gives are not always drawn."}
{"smiles": "Cn1cc(C2=C(c3c4n(c5ccccc35)CCC(CN)C4)C(=O)NC2=O)c2ccccc21", "note": "(centres unmarked) [Compound 1929, 3-(8-aminomethyl-6,7,8,9-tetrahydro-pyrido[1,2-a]indol-10-yl)-4-(1-methyl-1H-indol-3-yl)-pyrrole-2,5-dione hydrochloride]", "values": [{"measurement": "Time over which the percentage of CD11a-positive MSCs was stable", "setting": "[1]; 3 μM for 24 h", "result": "at least 4 days"}, {"measurement": "Percentage of CD11a-positive MSCs", "setting": "[1]; 0.1, 1, 3 and 10 μM for 24 hours", "result": "dose-dependent increase"}, {"measurement": "Effect on the expression of other homing ligands", "setting": "[2]", "result": "no observed effect"}, {"measurement": "Reduction of increased TNF-α levels in the inflamed ear", "setting": "TNF-α; 24 h after pretreated MSCs", "result": "~50", "unit": "%"}, {"measurement": "TNF-alpha levels in the inflamed ear, fold reduction", "setting": "TNF-α; 24 hours after pretreated MSCs", "result": "2.6±0.5", "unit": "fold"}, {"measurement": "mRNA levels of CD18 in MSCs", "setting": "CD18 mRNA", "result": "did not upregulate"}, {"measurement": "MSC viability", "setting": "MSCs; 0.25 to 4 μM, 24 h pretreatment", "result": "did not significantly compromise cell viability"}, {"measurement": "Concentration levels at which toxicity to MSCs was seen", "setting": "MSCs; 72 h pretreatment", "result": "greater than 4 μM"}]}
